The results in this text go back to ChEMBL document CHEMBL1641599, “Design of novel N-phenylnicotinamides as selective cyclooxygenase-1 inhibitors” (Bioorg Med Chem Lett, 2011).

As a reminder, the inhibition is the relative decrease from the control value, in per cent. The IC50 is the concentration that gives 50% inhibition. A high value points to weaker potency.

For the first experiment, the target named is T1, Prostaglandin G/H synthase 1 (Ovis aries) (UniProt P05979).
T1 sequence (whole entry): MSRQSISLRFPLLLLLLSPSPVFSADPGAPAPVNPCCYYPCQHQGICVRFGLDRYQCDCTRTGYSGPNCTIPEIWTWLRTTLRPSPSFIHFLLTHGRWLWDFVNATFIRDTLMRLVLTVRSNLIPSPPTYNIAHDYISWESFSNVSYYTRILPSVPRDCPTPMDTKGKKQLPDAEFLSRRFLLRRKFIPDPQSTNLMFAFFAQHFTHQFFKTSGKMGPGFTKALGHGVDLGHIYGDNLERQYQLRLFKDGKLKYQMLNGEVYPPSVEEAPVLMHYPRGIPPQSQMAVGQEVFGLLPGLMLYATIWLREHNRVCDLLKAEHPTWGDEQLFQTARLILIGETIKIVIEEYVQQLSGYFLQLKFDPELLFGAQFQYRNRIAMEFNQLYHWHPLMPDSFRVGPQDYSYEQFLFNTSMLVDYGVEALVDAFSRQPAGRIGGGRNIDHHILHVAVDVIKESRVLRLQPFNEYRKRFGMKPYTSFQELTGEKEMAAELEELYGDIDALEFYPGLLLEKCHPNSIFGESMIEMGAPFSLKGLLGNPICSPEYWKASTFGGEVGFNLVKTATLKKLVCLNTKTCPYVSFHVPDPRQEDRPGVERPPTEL
Put plainly: Inhibition of ovine COX1 at 100 uM after 5 mins by microplate reader assay.
On to `COc1ccc(NC(=O)c2cncc(Br)c2)cc1`, for which the inhibition was 0%.
For `Cc1ccc(NC(=O)c2ccc(C)nc2)cc1`, the inhibition is 10%.
Regarding `O=C(Nc1ccc(Cl)cc1)c1cncc(Br)c1`, the inhibition was 13%.
As for `COc1ccc(NC(=O)c2ccc(O)nc2)cc1`, the inhibition worked out at 53%.
Still for that read-out and setting: in the case of `O=C(Nc1ccc(Cl)cc1)c1cnc(O)c(Cl)c1` it was 84%.
Molecule `Cc1ccc(NC(=O)c2cnc(Cl)c(Cl)c2)cc1` came in with an inhibition of 37%.
In turn, `O=C(Nc1ccc(F)cc1)c1cnc(O)c(Cl)c1` displayed an inhibition of 90%.
Consider `Cc1ccc(C(=O)Nc2cc(Cl)cc(Cl)c2)cn1`, for which the inhibition was 20%.
`O=C(Nc1ccc(F)cc1)c1cccnc1O` gave an inhibition of 64%.
On the same count and under the same terms, in the case of `Cc1ccc(NC(=O)c2ccc(Cl)nc2)cc1` it was 25%.
Molecule `O=C(Nc1ccc(F)cc1)c1ccc(Cl)nc1` came in with an inhibition of 41%.
`O=C(Nc1ccc(Cl)cc1)c1ccc(O)nc1` returned an inhibition of 75%.
The molecule `O=C(Nc1cccc(Cl)c1)c1cccnc1O` yielded an inhibition of 35%.
On to `O=C(Nc1cc(Cl)cc(Cl)c1)c1cnc(O)c(Cl)c1`, for which the inhibition was found to be 63%.
Molecule `Cc1ccc(C(=O)Nc2ccc(F)cc2)cn1` gave an inhibition of 59%.
`Cc1ccc(C(=O)Nc2ccc(Cl)cc2Cl)cn1`: the inhibition worked out at 38%.
`O=C(Nc1ccc(Cl)cc1)c1cnc(Cl)c(Cl)c1`: the inhibition was 42%.
`Cc1ccc(NC(=O)c2cccnc2O)cc1` registered an inhibition of 28%.
`Cc1ccc(NC(=O)c2ccc(O)nc2)cc1` registered an inhibition of 40%.
As for `O=C(Nc1ccc(Cl)cc1Cl)c1cncc(Br)c1`, the inhibition came out at 19%.
Still for that read-out and setting: in the case of `O=C(Nc1ccc(Cl)cc1)c1cccnc1O` it was 60%; in that of `O=C(Nc1ccc(Cl)cc1)c1ccc(Cl)nc1`, 42%; in that of `Cc1ccc(C(=O)Nc2ccc(Br)cc2)cn1`, 35%.
In turn, `O=C(Nc1ccc(F)cc1)c1ccc(O)nc1` registered an inhibition of 78%.
With `COc1ccc(NC(=O)c2ccc(Cl)nc2)cc1`, the inhibition came to 38%.
Consider `O=C(Nc1ccc(Cl)cc1Cl)c1cnc(Cl)c(Cl)c1`, for which the inhibition turned out to be 40%.
Still for that read-out and setting: in the case of `O=C(Nc1ccc(Br)cc1)c1cccnc1O` it was 47%; in that of `COc1ccc(NC(=O)c2ccc(C)nc2)cc1`, 26%.
Turning to `COc1ccc(NC(=O)c2cccnc2O)cc1`, the inhibition is 42%.
Regarding `O=C(Nc1ccc(Cl)cc1Cl)c1cnc(O)c(Cl)c1`, the inhibition worked out at 72%.
The molecule `Cc1ccc(C(=O)Nc2ccc(Cl)cc2)cn1` came in with an inhibition of 45%.
Take `O=C(Nc1ccc(Br)cc1)c1ccc(Cl)nc1`: the inhibition was 18%.
The same measure, in the same setting: in the case of `O=C(Nc1ccc(Br)cc1)c1cncc(Br)c1` it was 5%.
Turning to `Cc1ccc(NC(=O)c2cnc(O)c(Cl)c2)cc1`, the inhibition was 50%.
For the molecule `O=C(Nc1ccc(Br)cc1)c1cnc(O)c(Cl)c1`, the inhibition stood at 58%.
The same measure, in the same setting: the figure for `COc1ccc(NC(=O)c2cnc(O)c(Cl)c2)cc1` is 64%.
On the same count and under the same terms, the figure for `O=C(Nc1cc(Cl)cc(Cl)c1)c1cnc(Cl)c(Cl)c1` is 34%; for `O=C(Nc1ccc(Br)cc1)c1ccc(O)nc1` it is 64%.
`O=C(Nc1ccc(Br)cc1)c1cnc(Cl)c(Cl)c1` returned an inhibition of 33%.
Consider `O=C(Nc1ccc(F)cc1)c1cnc(Cl)c(Cl)c1`, for which the inhibition was found to be 45%.

The target in a further experiment is T2, Prostaglandin G/H synthase 1 (Ovis aries, UniProt P05979).
T2 sequence (P05979 whole entry): T1 sequence (whole entry)
Nature of the experiment: Inhibition of ovine COX1 after 5 mins by microplate reader assay.
Regarding `O=C(Nc1ccc(Cl)cc1)c1ccc(O)nc1`, the half-inhibitory concentration (IC50) was 9.2 µM.
Same read-out and setting: the figure for `O=C(Nc1cc(Cl)cc(Cl)c1)c1cnc(O)c(Cl)c1` is 29 µM; for `Cc1ccc(C(=O)Nc2ccc(F)cc2)cn1` it is 70 µM.
Molecule `O=C(Nc1ccc(F)cc1)c1c[nH]c(=O)c(Cl)c1` displayed a 50% inhibitory concentration (IC50) of 0.68 µM.
On to `O=C(Nc1ccc(Cl)cc1)c1cccnc1O`, for which half-maximal inhibition (IC50) was put at 28 µM.
`COc1ccc(NC(=O)c2c[nH]c(=O)c(Cl)c2)cc1` registered a 50% inhibitory concentration (IC50) of 44 µM.
Turning to `COc1ccc(NC(=O)c2ccc(=O)[nH]c2)cc1`, the concentration for half-maximal inhibition (IC50) amounted to 86 µM.
For the molecule `O=C(Nc1ccc(Cl)cc1)c1c[nH]c(=O)c(Cl)c1`, inhibition was half-maximal at 2.7 µM (IC50).
The molecule `O=C(Nc1ccc(F)cc1)c1ccc[nH]c1=O` displayed an IC50 of 32 µM.
Regarding `O=C(Nc1ccc(F)cc1)c1ccc(O)nc1`, half-maximal inhibition (IC50) was put at 3.5 µM.
Regarding `O=C(Nc1ccc(Cl)cc1Cl)c1cnc(O)c(Cl)c1`, the midpoint of inhibition, the IC50, lay at 16 µM.
`O=C(Nc1ccc(Br)cc1)c1ccc(=O)[nH]c1` yielded an IC50 of 30 µM.
Consider `Cc1ccc(NC(=O)c2c[nH]c(=O)c(Cl)c2)cc1`, for which the IC50 stood at 95 µM.
The same measure, in the same setting: the figure for `O=C(Nc1ccc(Br)cc1)c1cnc(O)c(Cl)c1` is 74 µM.
